From patent publication US20240360177A1, “PEPTIDES WITH ANTIMICROBIAL ACTIVITIES” (priority 2021, published 2024)
≈ marks a conversion by molar mass, not a printed value. Non-standard residues stand in square brackets, D forms with d. Residues, ends and D or L forms follow the SMILES beside them. Ava = NCCCCC(=O)O

Experiments:
[1] = test system: Staphylococcus aureus ATCC 29213; format: cell-based
[2] = test system: Escherichia coli ATCC 25922; format: cell-based
[3] = test system: Pseudomonas aeruginosa ATCC 27853; format: cell-based
C. albicans = conditions: 24 h
C. glabrata = conditions: 24 h
C. parapsilosis = conditions: 24 h
C. krusei = conditions: 24 h
C. auris = conditions: 24 h
C. tropicalis = conditions: 24 h
C. dubliniensis = conditions: 24 h
C. neoformans = conditions: 72 h
C. gattii = conditions: 72 h
Fusarium spp. = conditions: 48 h
Scedosporium spp. = conditions: 72 h
in vitro = conditions: human, EC50 cytotoxicity in HepG2, intracellular ATP assay

| SMILES | MIC C. albicans (C. albicans) [µg/mL] | MIC C. glabrata (C. glabrata) [µg/mL] | MIC C. parapsilosis (C. parapsilosis) [µg/mL] | MIC C. krusei (C. krusei) [µg/mL] | MIC C. auris (C. auris) [µg/mL] | MIC C. tropicalis (C. tropicalis) [µg/mL] | MIC C. dubliniensis (C. dubliniensis) [µg/mL] | MIC C. neoformans (C. neoformans) [µg/mL] | MIC C. gattii (C. gattii) [µg/mL] | MIC Range Fusarium spp. (Fusarium spp.) [µg/mL] | MIC Range Scedosporium spp. (Scedosporium spp.) [µg/mL] | MIC Range Lomentospora prolificans (Lomentospora prolificans) [µg/mL] | Activity at 24 h MIC50 against Candida spp. (Candida spp.) [µg/mL] | Activity at 24 h MIC90 against Candida spp. (Candida spp.) [µg/mL] | Activity at 48 h MIC50 against Candida spp. (Candida spp.) [µg/mL] | Activity at 48 h MIC90 against Candida spp. (Candida spp.) [µg/mL] | MIC Range Cryptococcus spp. (Cryptococcus spp.) [µg/mL] | MIC Range Filamentous Fungi (Filamentous Fungi) [µg/mL] | EC50 (in vitro) [µg/mL] | also measured |
| --- | --- | --- | --- | --- | --- | --- | --- | --- | --- | --- | --- | --- | --- | --- | --- | --- | --- | --- | --- | --- |
| N=C(N)NCCC[C@@H](N)C(=O)N[C@@H](CCCNC(=N)N)C(=O)N[C@H](CCCNC(=N)N)C(=O)NCCCCC(=O)N[C@H](CCCNC(=N)N)C(=O)N[C@@H](CCCNC(=N)N)C(=O)N[C@H](CCCNC(=N)N)C(=O)NCCCCC(=O)N[C@H](CCCNC(=N)N)C(=O)N[C@@H](CCCNC(=N)N)C(=O)N[C@H](CCCNC(=N)N)C(=O)N[C@@H](CCCNC(=N)N)C(=O)NCCCCC(=O)N[C@H](CCCNC(=N)N)C(=O)N[C@@H](CCCNC(=N)N)C(=O)N[C@H](CCCNC(=N)N)C(=O)N[C@@H](CCCNC(=N)N)C(N)=O [SEQ ID NO: 18, rRr-(Ava)-rRr-(Ava)-rRrR-(Ava)-rRrR-NH2] (H-[dR]R[dR][Ava][dR]R[dR][Ava][dR]R[dR]R[Ava][dR]R[dR]R-NH2) | 1 (≈ 0.4 µM) | 0.5 (≈ 0.2 µM) | 0.25 (≈ 0.1 µM) | 0.5 (≈ 0.2 µM) | 0.25 (≈ 0.1 µM) | 0.5 (≈ 0.2 µM) | 0.5 (≈ 0.2 µM) | 0.25 (≈ 0.1 µM) | 0.25 (≈ 0.1 µM) | 0.25 to 0.5 | 0.25 to 0.5 | 0.5 (≈ 0.2 µM) | 0.5 | 1 | 0.5 | 2 | 0.25 to 0.5 | 0.25 to 0.5 | > 300 | MIC Staphylococcus aureus [1]: 16 µg/mL (≈ 6.4 µM); MIC Escherichia coli [2]: 32 µg/mL (≈ 12.8 µM); MIC Pseudomonas aeruginosa [3]: 64 µg/mL (≈ 25.6 µM) |
| N=C(N)NCCC[C@@H](N)C(=O)N[C@@H](CCCNC(=N)N)C(=O)N[C@H](CCCNC(=N)N)C(=O)NCCCCC(=O)N[C@H](CCCNC(=N)N)C(=O)N[C@@H](CCCNC(=N)N)C(=O)N[C@H](CCCNC(=N)N)C(=O)NCCCCC(=O)N[C@H](CCCNC(=N)N)C(=O)N[C@@H](CCCNC(=N)N)C(=O)N[C@H](CCCNC(=N)N)C(=O)NCCCCC(=O)N[C@H](CCCNC(=N)N)C(=O)N[C@@H](CCCNC(=N)N)C(=O)N[C@H](CCCNC(=N)N)C(N)=O [SEQ ID NO: 22, rRr-(Ava)-rRr-(Ava)-rRr-(Ava)-rRr-NH2] (H-[dR]R[dR][Ava][dR]R[dR][Ava][dR]R[dR][Ava][dR]R[dR]-NH2) | 0.5 (≈ 0.228 µM) | 0.5 (≈ 0.228 µM) | 0.25 (≈ 0.114 µM) | 1 (≈ 0.457 µM) | 2 (≈ 0.914 µM) | 0.5 (≈ 0.228 µM) | 0.25 (≈ 0.114 µM) | 1 (≈ 0.457 µM) | 0.5 (≈ 0.228 µM) | 0.5 to 16 | 1 to 2 | 2 (≈ 0.914 µM) | 1 | 8 | 2 | 32 | 0.5 to 1 | 0.5 to 16 |  |  |
| N=C(N)NCCC[C@@H](N)C(=O)N[C@@H](CCCNC(=N)N)C(=O)N[C@H](CCCNC(=N)N)C(=O)NCCCCC(=O)N[C@H](CCCNC(=N)N)C(=O)N[C@@H](CCCNC(=N)N)C(=O)NCCCCC(=O)N[C@H](CCCNC(=N)N)C(=O)N[C@@H](CCCNC(=N)N)C(=O)NCCCCC(=O)N[C@H](CCCNC(=N)N)C(=O)N[C@@H](CCCNC(=N)N)C(=O)N[C@H](CCCNC(=N)N)C(N)=O [SEQ ID NO: 28, rRr-(Ava)-rR-(Ava)-rR-(Ava)-rRr-NH2] (H-[dR]R[dR][Ava][dR]R[Ava][dR]R[Ava][dR]R[dR]-NH2) | 2 (≈ 1.07 µM) | 4 (≈ 2.13 µM) | 0.5 (≈ 0.266 µM) | 8 (≈ 4.26 µM) | >32 | 1 (≈ 0.533 µM) | 1 (≈ 0.533 µM) | 8 (≈ 4.26 µM) | 4 (≈ 2.13 µM) |  | 4 (≈ 2.13 µM) | 32 (≈ 17.1 µM) | 8 | >32 | 8 | >32 | 2 to 8 |  |  |  |
| N=C(N)NCCC[C@@H](N)C(=O)N[C@@H](CCCNC(=N)N)C(=O)N[C@H](CCCNC(=N)N)C(=O)N1CCC[C@H]1C(=O)N[C@H](CCCNC(=N)N)C(=O)N[C@@H](CCCNC(=N)N)C(=O)N[C@H](CCCNC(=N)N)C(=O)N1CCC[C@H]1C(=O)N[C@H](CCCNC(=N)N)C(=O)N[C@@H](CCCNC(=N)N)C(=O)N[C@H](CCCNC(=N)N)C(=O)N1CCC[C@H]1C(=O)N[C@H](CCCNC(=N)N)C(=O)N[C@@H](CCCNC(=N)N)C(=O)N[C@H](CCCNC(=N)N)C(N)=O [SEQ ID NO: 66, rRr-P-rRr-P-rRr-P-rRr-NH2] (H-[dR]R[dR]P[dR]R[dR]P[dR]R[dR]P[dR]R[dR]-NH2) | 0.25 (≈ 0.115 µM) | 0.5 (≈ 0.229 µM) | 0.25 (≈ 0.115 µM) | 0.5 (≈ 0.229 µM) | 8 (≈ 3.67 µM) | 0.25 (≈ 0.115 µM) | 0.25 (≈ 0.115 µM) | 0.5 (≈ 0.229 µM) | 1 (≈ 0.458 µM) | 0.12 to 8 | 0.5 to 2 | 2 (≈ 0.916 µM) | 0.5 | 8 | 0.5 | 16 | 0.5 to 1 | 0.12 to 8 | > 300 |  |
| N=C(N)NCCC[C@@H](N)C(=O)N[C@@H](CCCNC(=N)N)C(=O)N[C@H](CCCNC(=N)N)C(=O)N1CCC[C@H]1C(=O)N[C@H](CCCNC(=N)N)C(=O)N[C@@H](CCCNC(=N)N)C(=O)N1CCC[C@H]1C(=O)N[C@H](CCCNC(=N)N)C(=O)N[C@@H](CCCNC(=N)N)C(=O)N1CCC[C@H]1C(=O)N[C@H](CCCNC(=N)N)C(=O)N[C@@H](CCCNC(=N)N)C(=O)N[C@H](CCCNC(=N)N)C(N)=O [SEQ ID NO: 70, rRr-P-rR-P-rR-P-rRr-NH2] (H-[dR]R[dR]P[dR]RP[dR]RP[dR]R[dR]-NH2) | 0.5 (≈ 0.267 µM) | 4 (≈ 2.14 µM) | 2 (≈ 1.07 µM) | 2 (≈ 1.07 µM) | >32 | 1 (≈ 0.535 µM) | 1 (≈ 0.535 µM) | 8 (≈ 4.28 µM) | 4 (≈ 2.14 µM) |  | 8 (≈ 4.28 µM) | 32 (≈ 17.1 µM) | 4 | >32 | 8 | >32 | 1 to 8 |  |  |  |
